From patent US12227488B2, “Small molecule degraders of Helios and methods of use” (DANA-FARBER CANCER INSTITUTE, INC., priority 2018, dated 2025)

Assays:
GSPT1 = GSPT1 (Homo sapiens, UniProt P15170+Q96SW2); assay: Cellular degradation assay, eGFP-GSPT1 fusion with mCherry reporter in Flp-In 293 cells; assay type: cell-based; set-up: expressed in transfected cells; host or cells: Flp-In 293; details: 5 h incubation, n=1
Summary of the method: (§1)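 Flp-In 293 cells stably expressing eGFP-tagged degron fusions with P2A-mCherry reporter were treated with compound titrations (0.5% DMSO) for 5 hours. Imaging quantified GFP-positive/mCherry-positive cell fraction per well; DC50 at 5 h from nonlinear variable-slope fit.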

SALL4 ZNF1-2 = biological target: T1, SALL4 ZNF1-2 (Homo sapiens, UniProt Q96SW2+Q9UJQ4); assay: Cellular degradation assay, eGFP-SALL4 ZnF1-2 fusion with mCherry reporter in Flp-In 293 cells; assay type: cell-based; details: 5 h incubation, n=1
T1 construct: IKZF1Δ, IKZF2Δ, GSPT1 and SALL4 ZnF1-2 were subcloned; expressed in transfected cells; host or cells: Flp-In 293
T1 sequence (Q9UJQ4 378-438 limits assumed): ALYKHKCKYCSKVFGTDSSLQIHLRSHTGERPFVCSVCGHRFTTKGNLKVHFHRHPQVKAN
T1 sequence (Q96SW2 whole entry, the tested form may be a part): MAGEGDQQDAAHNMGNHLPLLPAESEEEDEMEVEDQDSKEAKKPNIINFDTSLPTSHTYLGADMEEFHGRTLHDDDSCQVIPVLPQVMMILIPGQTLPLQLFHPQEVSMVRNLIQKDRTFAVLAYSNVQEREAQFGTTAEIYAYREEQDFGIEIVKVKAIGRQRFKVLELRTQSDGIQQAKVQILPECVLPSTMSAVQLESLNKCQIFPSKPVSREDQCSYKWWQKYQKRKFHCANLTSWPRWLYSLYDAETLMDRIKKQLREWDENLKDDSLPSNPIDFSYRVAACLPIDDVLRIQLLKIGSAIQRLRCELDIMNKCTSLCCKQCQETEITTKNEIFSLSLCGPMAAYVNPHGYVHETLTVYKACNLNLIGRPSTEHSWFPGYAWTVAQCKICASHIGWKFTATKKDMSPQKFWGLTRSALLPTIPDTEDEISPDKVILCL
T1 sequence (Q16531 whole entry partner, the tested form may be a part): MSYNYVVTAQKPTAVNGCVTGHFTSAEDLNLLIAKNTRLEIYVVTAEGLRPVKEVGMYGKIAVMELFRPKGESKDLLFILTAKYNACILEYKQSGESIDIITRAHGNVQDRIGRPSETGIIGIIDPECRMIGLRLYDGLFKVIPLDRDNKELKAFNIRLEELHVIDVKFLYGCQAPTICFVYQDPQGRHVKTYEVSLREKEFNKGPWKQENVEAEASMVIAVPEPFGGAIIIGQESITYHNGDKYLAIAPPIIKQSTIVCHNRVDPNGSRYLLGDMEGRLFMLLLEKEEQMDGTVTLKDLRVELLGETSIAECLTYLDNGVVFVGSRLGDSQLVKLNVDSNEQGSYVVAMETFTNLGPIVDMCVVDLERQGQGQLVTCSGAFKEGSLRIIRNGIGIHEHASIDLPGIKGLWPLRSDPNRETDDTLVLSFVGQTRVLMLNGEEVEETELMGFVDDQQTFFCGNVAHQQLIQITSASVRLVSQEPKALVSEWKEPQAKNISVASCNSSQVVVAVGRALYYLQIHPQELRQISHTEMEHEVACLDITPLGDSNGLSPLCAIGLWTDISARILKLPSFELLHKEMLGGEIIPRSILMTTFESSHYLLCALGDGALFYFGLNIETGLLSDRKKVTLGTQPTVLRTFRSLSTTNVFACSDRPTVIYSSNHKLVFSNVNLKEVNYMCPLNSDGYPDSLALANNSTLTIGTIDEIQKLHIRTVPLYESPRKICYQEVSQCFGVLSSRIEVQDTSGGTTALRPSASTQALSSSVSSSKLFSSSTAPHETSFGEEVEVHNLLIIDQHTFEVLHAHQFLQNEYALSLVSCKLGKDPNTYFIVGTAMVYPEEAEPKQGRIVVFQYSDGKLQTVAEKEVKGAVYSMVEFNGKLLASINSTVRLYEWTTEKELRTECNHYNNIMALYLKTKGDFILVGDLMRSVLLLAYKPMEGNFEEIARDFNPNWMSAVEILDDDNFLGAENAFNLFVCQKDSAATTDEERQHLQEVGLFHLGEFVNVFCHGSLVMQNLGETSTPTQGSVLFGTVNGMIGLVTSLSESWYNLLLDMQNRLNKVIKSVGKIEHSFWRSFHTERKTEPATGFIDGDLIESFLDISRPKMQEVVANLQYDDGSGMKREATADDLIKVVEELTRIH
Summary of the method: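 Flp-In 293 cells stably expressing eGFP-SALL4 ZnF1-2 fusion plus mCherry reporter were treated with compound titrations (0.5% DMSO) for 5 hours. Imaging at 488/561 nm gave, per well, the fraction of GFP-positive among mCherry-positive cells.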

IKZF2 = assay: Cellular degradation assay, eGFP-IKZF2Δ fusion with mCherry reporter in Flp-In 293 cells; assay type: cell-based; details: 5 h incubation, n=1
Summary of the method: as §1

CRBN and Helios (IKZF2) = biological target: T2, CRBN and Helios (IKZF2) (Homo sapiens, UniProt Q96SW2+Q9UKS7); assay: TR-FRET dimerization assay (CRBN-IKZF2 ternary complex formation); assay type: binding; details: n=1
T2 construct: His (N); Strep (N)
T2 sequence (Q96SW2 whole entry): as the sequence (Q96SW2 whole entry, the tested form may be a part) above
T2 sequence (Q9UKS7 whole entry): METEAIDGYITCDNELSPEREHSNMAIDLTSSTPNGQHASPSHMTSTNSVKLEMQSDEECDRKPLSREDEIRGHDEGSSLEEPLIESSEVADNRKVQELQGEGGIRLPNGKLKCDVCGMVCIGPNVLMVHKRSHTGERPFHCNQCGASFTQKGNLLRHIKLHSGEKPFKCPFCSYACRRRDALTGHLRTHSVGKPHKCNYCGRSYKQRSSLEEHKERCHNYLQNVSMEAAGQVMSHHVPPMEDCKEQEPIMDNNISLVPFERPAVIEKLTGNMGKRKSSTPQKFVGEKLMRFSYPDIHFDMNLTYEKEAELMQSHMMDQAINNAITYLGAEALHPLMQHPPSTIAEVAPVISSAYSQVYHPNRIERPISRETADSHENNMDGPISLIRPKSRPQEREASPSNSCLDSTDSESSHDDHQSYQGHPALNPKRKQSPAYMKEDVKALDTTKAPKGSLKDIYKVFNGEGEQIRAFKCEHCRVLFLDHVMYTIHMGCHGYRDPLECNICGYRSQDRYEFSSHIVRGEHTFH
Summary of the method: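 BODIPY-labeled DDB1ΔB-CRBN and in vitro biotinylated IKZF2 were treated with increasing compound concentrations plus tracer Terbium-Streptavidin and incubated 15 min at rt. Recruitment was quantified as the 520/490 nm TR-FRET ratio; values are single measurements (n=1), each averaged from at least three technical replicates.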

IKZF1 = biological target: T3, IKZF1 (Homo sapiens, UniProt Q13422); assay: Cellular degradation assay, eGFP-IKZF1Δ fusion with mCherry reporter in Flp-In 293 cells; assay type: cell-based; details: 5 h incubation, n=1
T3 construct: expressed in transfected cells; host or cells: Flp-In 293
T3 sequence (Q13422 83-213 isoform Q13422-7 limits assumed): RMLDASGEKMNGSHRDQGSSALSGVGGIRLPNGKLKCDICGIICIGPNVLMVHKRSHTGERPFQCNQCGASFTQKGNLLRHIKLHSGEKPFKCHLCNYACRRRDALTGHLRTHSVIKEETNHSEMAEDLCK
T3 sequence (Q96SW2 whole entry partner, the tested form may be a part): as the sequence (Q96SW2 whole entry, the tested form may be a part) above
T3 sequence (Q16531 2-1140 partner limits assumed): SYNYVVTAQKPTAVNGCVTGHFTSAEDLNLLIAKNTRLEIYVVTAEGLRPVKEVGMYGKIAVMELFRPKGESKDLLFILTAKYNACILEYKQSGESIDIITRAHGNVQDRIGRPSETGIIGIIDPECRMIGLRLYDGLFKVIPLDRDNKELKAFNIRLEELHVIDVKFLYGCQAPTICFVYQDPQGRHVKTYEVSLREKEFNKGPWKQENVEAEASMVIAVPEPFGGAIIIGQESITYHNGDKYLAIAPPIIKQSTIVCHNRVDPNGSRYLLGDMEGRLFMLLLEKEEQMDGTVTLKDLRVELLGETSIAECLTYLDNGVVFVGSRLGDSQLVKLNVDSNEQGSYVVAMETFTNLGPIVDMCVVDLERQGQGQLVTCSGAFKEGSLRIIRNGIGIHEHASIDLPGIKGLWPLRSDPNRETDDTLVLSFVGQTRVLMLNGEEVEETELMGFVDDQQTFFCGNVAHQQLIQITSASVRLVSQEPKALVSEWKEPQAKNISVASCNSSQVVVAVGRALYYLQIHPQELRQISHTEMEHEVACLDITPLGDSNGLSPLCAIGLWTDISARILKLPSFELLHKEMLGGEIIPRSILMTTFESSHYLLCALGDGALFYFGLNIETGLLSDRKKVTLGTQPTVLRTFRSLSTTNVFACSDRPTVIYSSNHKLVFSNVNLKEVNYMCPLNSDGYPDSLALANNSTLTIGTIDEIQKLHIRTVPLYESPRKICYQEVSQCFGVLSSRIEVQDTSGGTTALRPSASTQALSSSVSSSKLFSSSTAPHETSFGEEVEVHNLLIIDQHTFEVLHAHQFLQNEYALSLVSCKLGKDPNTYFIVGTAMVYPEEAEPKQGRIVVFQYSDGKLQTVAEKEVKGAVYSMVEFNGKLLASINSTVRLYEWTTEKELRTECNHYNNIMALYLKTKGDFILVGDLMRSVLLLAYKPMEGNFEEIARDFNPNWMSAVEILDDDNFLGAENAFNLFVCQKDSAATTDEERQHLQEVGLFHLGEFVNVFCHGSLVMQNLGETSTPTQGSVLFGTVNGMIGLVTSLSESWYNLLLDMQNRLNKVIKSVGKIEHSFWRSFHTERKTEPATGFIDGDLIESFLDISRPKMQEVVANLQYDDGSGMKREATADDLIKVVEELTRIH
Summary of the method: as §1

[1] = compound concentration 2.00E−05
[2] = compound concentration 2.00E−06
[3] = compound concentration 2.00E−07
[4] = compound concentration 6.6667E−05
[5] = compound concentration 6.6667E−06
[6] = compound concentration 6.6667E−07 (667 nM)

Chain of GSPT1 (P15170 whole entry, the tested form may be a part): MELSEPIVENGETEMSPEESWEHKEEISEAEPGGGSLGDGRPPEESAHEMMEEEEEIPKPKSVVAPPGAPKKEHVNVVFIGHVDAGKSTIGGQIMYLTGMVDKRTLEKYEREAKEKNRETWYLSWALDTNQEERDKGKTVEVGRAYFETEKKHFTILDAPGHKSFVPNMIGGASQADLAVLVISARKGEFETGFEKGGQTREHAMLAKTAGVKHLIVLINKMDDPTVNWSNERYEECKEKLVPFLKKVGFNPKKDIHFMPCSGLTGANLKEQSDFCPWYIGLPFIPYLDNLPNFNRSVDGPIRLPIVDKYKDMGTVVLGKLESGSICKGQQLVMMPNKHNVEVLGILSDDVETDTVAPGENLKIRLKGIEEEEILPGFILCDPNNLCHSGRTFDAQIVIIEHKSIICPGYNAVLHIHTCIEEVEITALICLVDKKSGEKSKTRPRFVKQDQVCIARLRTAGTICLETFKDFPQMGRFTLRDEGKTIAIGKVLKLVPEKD
Chain of GSPT1 (Q96SW2 whole entry, the tested form may be a part): as the sequence (Q96SW2 whole entry, the tested form may be a part) above
Chain of GSPT1 (Q16531 whole entry partner, the tested form may be a part): as the sequence (Q16531 whole entry partner, the tested form may be a part) above

Compound	GSPT1 GFP/RFP Relative Abundance (GSPT1; [1])	GSPT1 GFP/RFP Relative Abundance (GSPT1; [2])	GSPT1 GFP/RFP Relative Abundance (GSPT1; [3])	SALL4 ZNF1-2 GFP/RFP Relative Abundance (SALL4 ZNF1-2; [1])	SALL4 ZNF1-2 GFP/RFP Relative Abundance (SALL4 ZNF1-2; [2])	SALL4 ZNF1-2 GFP/RFP Relative Abundance (SALL4 ZNF1-2; [3])	IKZF2 GFP/RFP Relative Abundance (IKZF2; [1])	IKZF2 GFP/RFP Relative Abundance (IKZF2; [2])	IKZF2 GFP/RFP Relative Abundance (IKZF2; [3])	TR-FRET-IKZF2 (Normalized to CC-885) (CRBN and Helios (IKZF2); [4])	TR-FRET-IKZF2 (Normalized to CC-885) (CRBN and Helios (IKZF2); [5])	TR-FRET-IKZF2 (Normalized to CC-885) (CRBN and Helios (IKZF2); [6])	IKZF1 GFP/RFP Relative Abundance (IKZF1; [1])	IKZF1 GFP/RFP Relative Abundance (IKZF1; [2])	IKZF1 GFP/RFP Relative Abundance (IKZF1; [3])
Cc1ccc(NC(=O)NCc2ccccc2NC2=CC(=O)N(C3CCC(=O)NC3=O)C2=O)cc1Cl (stereo not drawn) [Compound 45, 1-(3-chloro-4-methylphenyl)-3-(2-((1-(2,6-dioxopiperidin-3-yl)-2,5-dioxo-2,5-dihydro-1H-pyrrol-3-yl)amino)benzyl)urea]	0.476	0.921	1.093	1.059	0.993	0.948	1.015	1.022	1.022	0.079	0.059	0.051	0.957	1.027	1.060
O=C1CCC(N2C(=O)C=C(Nc3ccc(-n4ccnc4)cc3)C2=O)C(=O)N1 (stereo not drawn) [Compound 29, 3-(3-((4-(1H-imidazol-1-yl)phenyl)amino)-2,5-dioxo-2,5-dihydro-1H-pyrrol-1-yl)piperidine-2,6-dione]	0.790	0.913	0.729	0.958	0.913	0.908	0.982	1.005	0.942	0.347	0.297	0.270	0.495	0.516	0.602
O=C1CCC(N2C(=O)C=C(Nc3cccc(-c4cc[nH]n4)c3)C2=O)C(=O)N1 (stereo not drawn) [Compound 31, 3-(3-((3-(1H-pyrazol-3-yl)phenyl)amino)-2,5-dioxo-2,5-dihydro-1H-pyrrol-1-yl)piperidine-2,6-dione]	0.666	1.197	1.240	0.755	0.626	0.713	0.494	0.638	0.766	0.628	0.521	0.434	0.254	0.290	0.399
Cc1ccc(NC(=O)Nc2cccc(NC3=CC(=O)N(C4CCC(=O)NC4=O)C3=O)c2)cc1Cl (stereo not drawn) [Compound 43, 1-(3-chloro-4-methylphenyl)-3-(3-((1-(2,6-dioxopiperidin-3-yl)-2,5-dioxo-2,5-dihydro-1H-pyrrol-3-yl)amino)phenyl)urea]	0.083	0.072	0.087	1.072	0.897	0.888	1.054	1.007	0.980	0.443	0.353	0.278	0.996	0.240	0.301
